Assay results published in patent US8080529B2, “Macrolides with anti-inflammatory activity” (Glaxo Group Limited, priority 2005, dated 2011).
Like-named read-outs stand apart in the source and are kept apart here.

How the values were obtained:
TNF-α [1] = assay: Inhibition of TNF-α production by stimulated human peripheral blood leukocytes in vitro; type: cell-based; details: Homo sapiens, Leukocyte, read-out: Percentage of inhibition of TNF-α production
Outline: (§1)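 Compound at 10 or 50 μM, given 2 h ahead of an overnight LPS, PMA or zymosan challenge, was tested on human PBL in RPMI with 10% FCS at 37 °C. Sandwich ELISA quantified supernatant cytokine.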

IL-1α = assay: Inhibition of IL-1 production by stimulated human peripheral blood leukocytes in vitro; type: cell-based; details: Homo sapiens, Leukocyte, read-out: Percentage of inhibition of IL-1α production
IL-6 = assay: Inhibition of IL-6 production by stimulated human peripheral blood leukocytes in vitro; type: cell-based; details: Homo sapiens, Leukocyte, read-out: Percentage of inhibition of IL-6 production
Outline: as §1

IL-8 = assay: Inhibition of IL-8 production by stimulated human peripheral blood leukocytes in vitro; type: cell-based; details: Homo sapiens, Leukocyte, read-out: Percentage of inhibition of IL-8 production
Outline: as §1

[2] = system: human peripheral blood mononuclear cells (PBMC); assay: Effects on human T-cell proliferation in vitro (3H-thymidine incorporation); type: cell-based; details: Homo sapiens, PBMC, read-out: Percentage of inhibition of proliferation of stimulated PBMC
Outline: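 Proliferation of human peripheral blood mononuclear cells (PBMC) was assessed in the presence of test compounds. During the final 18 h of culture each well received 1 μCi of ^3H-thymidine. Cells were then collected onto a 96-well filter with a multiple cell harvester, and ^3H-thymidine incorporation was counted on a TopCount NXT to give percentage inhibition of proliferation.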

Hep G2 = assay: Cytotoxicity assay (MTT), Hep G2 cell line; type: cell-based; details: 24 h
Outline: (§2)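 Viability was read as MTT-formazan absorbance at 490 nm after 0.5-2 h with reagent. This followed 24 h compound exposure (50 μM, 12.5 μM) at 37° C in RPM medium. Result expressed as OD490 treated over untreated cells ×100.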

A549 = assay: Cytotoxicity assay (MTT), A549 cell line; type: cell-based; details: 24 h
Outline: as §2

TNF-α [3] = assay: Lipopolysaccharide induced TNF-α production in Balb/cJ mice; type: in vivo; details: Mus musculus, ip, 1.5 h; 10 mg/kg intraperitoneally, 30 min before LPS; 90 min after LPS; read-out: % inhibition of TNF-α production (plasma)

Row | SMILES | inhibition at 10 µM (TNF-α [1]; LPS-stimulated PBL) | inhibition at 10 µM (TNF-α [1]; PMA-stimulated PBL) | inhibition at 10 µM (TNF-α [1]; zymosan-stimulated PBL) | inhibition at 50 µM (TNF-α [1]; LPS-stimulated PBL) | inhibition at 50 µM (TNF-α [1]; PMA-stimulated PBL) | inhibition at 50 µM (TNF-α [1]; zymosan-stimulated PBL) | inhibition at 10 µM (IL-1α; LPS-stimulated PBL) | inhibition at 10 µM (IL-1α; PMA-stimulated PBL) | inhibition at 10 µM (IL-1α; zymosan-stimulated PBL) | inhibition at 50 µM (IL-1α; LPS-stimulated PBL) | inhibition at 50 µM (IL-1α; PMA-stimulated PBL) | inhibition at 50 µM (IL-1α; zymosan-stimulated PBL) | inhibition at 10 µM (IL-6; LPS-stimulated PBL) | inhibition at 10 µM (IL-6; PMA-stimulated PBL) | inhibition at 10 µM (IL-6; zymosan-stimulated PBL) | inhibition at 50 µM (IL-6; LPS-stimulated PBL) | inhibition at 50 µM (IL-6; PMA-stimulated PBL) | inhibition at 50 µM (IL-6; zymosan-stimulated PBL) | inhibition at 10 µM (IL-8; LPS-stimulated PBL) | inhibition at 10 µM (IL-8; PMA-stimulated PBL) | other results
1 | CC[C@H]1OC(=O)[C@H](C)[C@@H](O[C@H]2C[C@@](C)(OC)[C@@H](O)[C@H](C)O2)[C@H](C)[C@@H](O[C@@H]2O[C@H](C)C[C@H](N(C)C)[C@H]2O)[C@](C)(O)C[C@@H](C)CN(C)[C@H](C)[C@@H](O)[C@]1(C)O [azithromycin, reference compound] | 36% | 0% | 6% | 20% | 0% | 64% | 28% | 0% | 20% | 48% | 0% | 75% | 15% | 0% | 20% | 40% | 0% | 75% | 0% | 0% | inhibition at 10 µM (IL-8; zymosan-stimulated PBL): 0%; inhibition at 50 µM (IL-8; LPS-stimulated PBL): 0%; inhibition at 50 µM (IL-8; PMA-stimulated PBL): 0%; inhibition at 50 µM (IL-8; zymosan-stimulated PBL): 0%; inhibition at 10 µM ([2]; PHA): 5%; inhibition at 50 µM ([2]; PHA): 29%; inhibition at 10 µM ([2]; PMA + iono.): 9%; inhibition at 50 µM ([2]; PMA + iono.): 31%; Percentage of inhibition of cell growth (Hep G2; 12.5 μM): 0%; Percentage of inhibition of cell growth (Hep G2; 50 μM): 0%; Percentage of inhibition of cell growth (A549; 12.5 μM): 0%; Percentage of inhibition of cell growth (A549; 50 μM): 0%; inhibition in vivo at 10 mg/kg (TNF-α [3]): 54%
2 | CC[C@H]1OC(=O)[C@H](C)[C@@H](O[C@H]2C[C@@](C)(OC)[C@@H](O)[C@H](C)O2)[C@H](C)[C@@H](O[C@@H]2O[C@H](C)C[C@H](N(C)C)[C@H]2O)[C@](C)(OC)C[C@@H](C)C(=O)[C@H](C)[C@@H](O)[C@]1(C)O [clarithromycin, reference compound] | 0% | 0% | 0% | 0% | 0% | 0% | 0% | 26% | 36% | 0% | 33% | 59% | 11% | 0% | 28% | 0% | 0% | 0% | 23% | 33% | inhibition at 10 µM (IL-8; zymosan-stimulated PBL): 0%; inhibition at 50 µM (IL-8; LPS-stimulated PBL): 0%; inhibition at 50 µM (IL-8; PMA-stimulated PBL): 0%; inhibition at 50 µM (IL-8; zymosan-stimulated PBL): 0%; inhibition at 10 µM ([2]; PHA): 0%; inhibition at 50 µM ([2]; PHA): 7%; inhibition at 10 µM ([2]; PMA + iono.): 9%; inhibition at 50 µM ([2]; PMA + iono.): 14%; Percentage of inhibition of cell growth (Hep G2; 12.5 μM): 0%; Percentage of inhibition of cell growth (Hep G2; 50 μM): 0%; Percentage of inhibition of cell growth (A549; 12.5 μM): 0%; Percentage of inhibition of cell growth (A549; 50 μM): 0%; inhibition in vivo at 10 mg/kg (TNF-α [3]): 63%
